Patent publication US20070208086A1, “UBIQUINONE ANALOGS AND METHODS OF USE” (THE REGENTS OF THE UNIVERSITY OF CALIFORNIA, priority 2006, published 2007)

Test: Determination of reduction potentials by cyclic voltametry (CV)
Type: physicochemical
Excerpt: In one embodiment, the compound of the invention has a reduction potential, which is different from the reduction potential of CoQ10. In an exemplary embodiment, the reduction potential found for the compound of the invention is lower than the reduction potential of CoQ10. Methods for the determination of reduction potentials are known in the art and are, for example, described in A. J. Fry, Synthetic Organic Electrochemistry, 2nd Ed., Wiley-Interscience, New York, 1989. For example the reduction potential is measured against the Ag/AgNO3 redox system. “Reduction potential” can mean “first reduction potential”, in which a first electron is transferred (e.g., Q→Q ? ), or “second reduction potential”, in which a second electron is transferred (e.g., Q ? →Q^−2). Typically, “reduction potential” for the purpose of comparing compounds, means the first reduction potential. However, for certain compounds a distinction between a first and a second reduction potential cannot be measured. In these cases, the “overall” (measurable) reduction potential is used to compare reduction potential values of compounds. The reduction potentials for selected ubiquinone analogs of the invention are summarized in Example 12, below. For example, while the first reduction potential of CoQ10 in a particular assay is −1.11, the first reduction potential found for compound 9 is −1.22, which is lower than −1.11. In another example, the overall reduction potential for compound 7 is −1.44, which is lower than −1.11 for CoQ10. In an exemplary embodiment, the ratio (a/b) between the reduction potential of a compound of the invention (a) and the reduction potential of CoQ10 to (b) in a particular assay is between about 1 and about 50. In another exemplary embodiment, the ratio is between about 1 and about 40, preferably between about 1 and about 30, more preferably between about 1 and about 20, and even more preferably between about 1 and about 10. In yet another exemplary embodiment, the ratio is between about 1 and about 8 preferably between about 1 and about 6, more preferably between about 1 and about 4, and most preferably between about 1 and about 2.
The redox chemistry of a variety of purified ubiquinones of the invention was examined using cyclic voltametry (CV). Methods for the determination of reduction potentials are known in the art and are, for example, described in A. J. Fry, Synthetic Organic Electrochemistry, 2nd Ed., Wiley-Interscience, New York, 1989.
The resulting redox data (including those for CoQ10) are listed in the order of increasing first-wave potentials (Epc1) in Table 1, below. The abbreviation Epc1 and Epc2 are used to represent the values of the first and second cathodic peak potentials, respectively. The peak potentials correspond to the first and second reduction wave minima in the recorded CV graphs (see e.g., FIG. 1).
The value of the second peak potential is, typically, an approximation. Chemical side reactions coupled to the transient species generated in the first reduction may contribute to the shape of the wave, and thus the peak potential. […] Representative first and second reduction waves for analogs 1 and 23, as well as for CoQ10, are illustrated in FIG. 1, which represents an expanded portion of the recorded CV graph.

- Q/Q*− (Epc1), first wave potential (Epc vs. Ag/AgNO3 in DMF, first cathodic peak potential): −1.11 V
- Q*−/Q−2 (Epc2), second wave potential (Epc vs. Ag/AgNO3 in DMF, second cathodic peak potential, typically an approximation): −1.42 V
- first reduction potential (FIG. 1 reduction waves): -1.11 V
- second reduction potential (FIG. 1 reduction waves): -1.42 V
- first reduction potential (in a particular assay): −1.11
SMILES: COC1=C(OC)C(=O)C(C/C=C(\C)CC/C=C(\C)CC/C=C(\C)CC/C=C(\C)CC/C=C(\C)CC/C=C(\C)CC/C=C(\C)CC/C=C(\C)CC/C=C(\C)CCC=C(C)C)=C(C)C1=O [CoQ10]
